Measurements published in patent US20260242440A1, “NOVEL MEANS TO MODULATE NMDA RECEPTOR-MEDIATED TOXICITY” (FUNDAMENTAL PHARMA GMBH, priority 2018, published 2026).

Legend:
HEK293 cells = assay: Luminescent cytotoxicity assay, HEK293 cells transfected with GRIN1 and GRIN2A or GRIN2B; format: cell-based, human; conditions: compound added 6 h after transfection; cell death 48 h after transfection
Description: HEK293 cells were cultured in Dulbecco's Modified Eagle Medium (DMEM, Gibco™ 41965-039) supplement with 10% Fetal Bovine Serum (FBS, Gibco™, 10270), 1% Sodium Pyruvate (Gibco™, 11360070), 1% MEM NEAA (GibcoT^M, 11140035) and 0.5% Penicillin-Streptomycin (P-S; Sigma, P0781) and Passagel5-25 were used for experiments.
To test the cytotoxicity of compounds according to the present invention, HEK293 cells (70-80% confluent) were transfected 24 hours after plating with both GRIN1 and GRIN2 Å or GRIN2B, respectively (1:[…]) with Lipofectamine 2000 according to manufacturer's instructions. The relative number of dead cells in the population at the indicated time points after transfection was measured with the CytoTox-Glo™ Cytotoxicity assay (Promega, G9290) according to manufacturer's instruction with minor modification. Briefly, 10% of total medium were mixed with 10 μL AAF-amino luciferin to reach a final volume at 200 μL with water, the dead cell relative luminescence units (DRLU) was measured by GloMax (Promega) in a 96 well white bottom polystyrene microplate (Corning Costar®, 3912). After all the measurements, lysis reagents have been added to the cells and 10% of lysate was used for the total cell relative luminescence units (TRLU) measurement. Cell death was calculated by the following equations: […]
For drug testing, P4, P8, P9, P13 and P15 were added to the medium at indicated concentration 6 h after transfection. DRLU, TRLU and cell death were measured and calculated 48 h after transfection.

[1] = test system: primary mouse hippocampal neurons; assay: NMDA induced cell death (excitotoxicity) in cultured primary neurons; format: cell-based; conditions: polypeptide expressed via rAAV infection on DIV3, NMDA 20 μM for 10 min, cell death assessed 24 h later
Description: Primary mouse hippocampal and cortical neurons were prepared and maintained as known. Briefly, hippocampi or cerebral cortex from P0 C57Bl/6NCrl mice were dissociated and plated at a density of 1.2*105/cm^2 in Growth Medium (GM), consisting of Neurobasal A medium (Gibco™, 10888022), 2% serum free B27™ Supplement (Gibco™, 17504044), 1% rat serum (Biowest, S2150), 0.5 mM L-Glutamine (Sigma, G7513) and 0.5% P-S. Cytosine β-D-arabinofuranoside (AraC; Sigma, C1768; 2.8 μM) was added on DIV3 to prevent the proliferation of glial cells. From DIV8, half of the medium was replaced by GM without Rat serum every 48 h until being used for experiments. 24 h before experiments, GM was replaced with transfection medium (10 mM HEPES, pH 7.4, 114 mM NaCl, 26.1 mM NaHCO3, 5.3 mM KCl, 1 mM MgCl2, 2 mM CaCl2, 30 mM glucose, 1 mM glycine, 0.5 mM C3H3NaO3, and 0.001% phenol red and 10% of phosphate-free Eagle's minimum essential medium, supplemented with 7.5 µg/ml insulin, 7.5 µg/ml transferrin and 7.5 ng/ml sodium selenite (ITS Liquid Media Supplement, Sigma-Aldrich Cat #I3146)). Primary hippocampal neurons were used in live cell imaging, cell death experiments, while cortical neurons were used for mRNA and protein extraction analysis.
All viral particles were produced and purified as known in the art. All TRPM4 derived peptides (comprising SEQ ID NO:5, or any of SEQ ID NO:46 to SEQ ID NO:56) were cloned into rAAV backbone by PCR. shRNA against mouse TRPM4 were designed by BLOCK-iT™ RNAi Designer from Thermofisher to target: […] (SEQ ID NO:44, shTRPM4-1) and […] (SEQ ID NO:45, shTRPM4-2). Scramble shRNA (shSCR) has been tested and proven to have no known targets in mice. GPI anchor ([…], e.g. used in SEQ ID NO:53) sequences were synthesized by Eurofins Genomics (Ebersberg, Germany). All primers were synthesized and all plasmids were confirmed by sequencing by Eurofins Genomics.
In order to investigate the role of TRPM4 in NMDA receptor mediated excitotoxicity, the inventors used RNA interference strategies to knock down TRPM4. Cultured primary mouse hippocampus neurons were infected on day 3 in vitro (DIV3) with recombinant adeno-associated viruses (rAAVs) providing for expression of a scramble control (shSCR), shTRPM4-1 (SEQ ID NO:44) or shTRPM4-2 (SEQ ID NO:45). On DIV15-16, neurons were challenged with N-methyl-D-aspartate (NMDA, 20 μM) for 10 min. After NMDA wash out, neurons were kept in the culture medium for another 24 h before analysis. […] Evidently, TRPM4 is thus involved in the process of NMDA receptor mediated excitotoxicity.
In a next step, the inventors tried to identify regions in the mouse TRPM4 protein potentially involved in NMDA receptor mediated excitotoxicity. For this purpose, polypeptide fragments of mouse TRPM4 protein were generated and their impact on NMDA induced excitotoxicity analysed. To do so, primary neuron cultures were infected with respective rAAVs on DIV3, challenged with NMDA (20 μM) for 10 min on DIV17 and cell death assessed 24 hours later.
The sequence of SEQ ID NO:5 in TRPM4 is located in vivo just beneath the plasma membrane. […] To test this hypothesis, the inventors created a fusion protein comprising SEQ ID NO:5 and a GPI anchor, SEQ ID NO:57. The sequence of the fusion is given in SEQ ID NO:53. Neurons infected with rAAV and expressing SEQ ID NO:47 (control) or SEQ ID NO:53 were exposed to NMDA (20 μM) for 10 min on DIV15-16, with cell death assessed after 24 h.
In a next step, the inventors created a mutant of SEQ ID NO:5, in which two adjacent phenylalanine residues where substituted by tyrosine residues (SEQ ID NO: 54). […] TRPM5 is a protein related to but nonetheless distinct to TRPM4. The region in TRPM5 corresponding to SEQ ID NO:5, SEQ ID NO:55, shares only about 60% sequence identity with SEQ ID NO:5. Neurons were infected on DIV3 with rAAVs expressing SEQ ID NO: 5, SEQ ID NO: 54 or SEQ ID NO:55 and exposed to NMDA (20 μM) for 10 min on DIV17, with cell death assessed 24 h later. […]

[2] = test system: primary mouse hippocampal neurons; assay: NMDA receptor induced mitochondrial membrane potential breakdown (Rh123 imaging); format: cell-based; conditions: polypeptides expressed via rAAV; bath application of 20 μM NMDA
Description: Coverslips with primary cultured neurons (DIV15-DIV17) were used to examine mitochondrial membrane potential (Ψm) and mitochondrial calcium signalling, which was performed at room temperature in CO2-independent culture medium (CICM) containing: 10 mM HEPES, 140 mM NaCl, 2.5 mM KCl, 1.0 mM MgCl2, 2.0 mM CaCl2, 1.0 mM Glycine, 35.6 mM Glucose and 0.5 mM Na-pyruvate. All images were obtained by a cooled-CCD camera (iXon 887, Andor) on an upright microscope (BX51WI, Olympus). Fluorescence excitation was provided by a xenon arc lamp in combination with an excitation filter wheel (MT-20, Olympus). Data were collected using Cell^R software (Olympus), analysed using ImageJ and quantified using Igor Pro (WaveMetrics). Ψm was detected with the small molecule fluorescence indicator Rhodamine 123 (Rh123; Molecular Probe™, R302). Primary cultured neurons were loaded with 4.3 μM Rh123 in CICM at 37° C. for 30 min, then washed and left in CICM for another 30 min before recording. At the end of each experiment, the mitochondrial uncoupler FCCP (5 μM, Sigma-Aldrich, Cat #C2920) was applied to the cells to reach the maximal Rh123 fluorescence intensity. Rh123 was imaged with 470±20 nm excitation and 525±25 nm emission wavelengths using a 20× objective. Rh123 fluorescence intensity was measured in the nucleus to minimize contamination from cytosolic mitochondrial signal and Rh123 fluorescence intensity was normalized to the maximum FCCP signal for each region of interest.
Mitochondrial dysfunction is a hallmark of NMDA receptor excitotoxicity and an early event en-route to neuronal death. A parameter that is often used to assess mitochondrial integrity is the mitochondrial membrane potential. A breakdown of the mitochondrial membrane potential can be observed after exposure of hippocampal or cortical neurons to NMDA and indicates excitotoxicity-associated mitochondrial dysfunction. Therefore, the inventors investigated the effect of polypeptides comprising the sequence of SEQ ID NO:5 or SEQ ID NO: 54 as well as of the control TRMP5 sequence (SEQ ID NO: 55) on mitochondrial membrane potential break down in primary mouse hippocampal neurons. Excitotoxicity leading to mitochondrial membrane potential break down was induced with bath application of 20 μM NMDA. After 11 minutes, the mitochondrial uncoupler, carbonylcyanide-p-trifluoromethoxyphenylhydrazone (FCCP) was added. Addition of FCCP leads to break-down of the mitochondrial membrane potential and served as a control of the test system.

NMDA receptor = assay: NMDA-induced calcium transients (Fura2 calcium imaging); format: cell-based, mouse; conditions: hippocampal neurons, 6 min NMDA (20 μM) application
Description: In a further experiment, the impact of P4 and P15 on NMDA-induced calcium transients was assessed. Briefly, for calcium imaging, primary hippocampal neurons on coverslips were loaded with the cell-permeable, high-affinity ratiometric calcium indicator Fura2-AM (Invitrogen™ F1221), at 1 μM in CO2-independent culture medium (CICM; CICM contains: 10 mM HEPES, 140 mM NaCl, 2.5 mM KCl, 1.0 mM MgCl2, 2.0 mM CaCl2, 1.0 mM Glycine, 35.6 mM Glucose and 0.5 mM Na-pyruvate) for 30 min at 37° C., then washed and left in CICM for another 30 min to allow for de-esterification. Fura2 was excited at 340/11 nm and 380/11 nm, and fluorescence emission was obtained from a 40× UV compatible objective (LUMPLFLN, Olympus) through a 510/20 nm emission filter. For quantification, ImageJ was used to calculate average background-subtracted fluorescence intensities for 340 and 380 nm excitation (F340 and F380) from each neuron. Intracellular calcium levels were plotted as F340/F380 ratios over time, from which the NMDA response amplitude and area under the curve (AUC) was calculated to quantify NMDA-induced calcium influx.

[3] = test system: primary mouse hippocampal neurons; assay: NMDA induced cell death (excitotoxicity) in cultured primary neurons; format: cell-based; conditions: neurons incubated 1 h with 1 or 10 μg fusion protein before NMDA 20 μM 10 min; cell death 24 h later

With O=C(NCc1ccc(CN2CCC(O)CC2)cc1)C1CC(F)(F)CN1 (centres unmarked) [P9] the “NMDA receptor induced cell death” value (HEK293 cells) was “reduced the level of NMDA receptor induced cell death”.

For CC1(CN)CCN(CC(=O)Nc2cc(Cl)ccc2Cl)C1 (centres unmarked) [P13], the “NMDA receptor induced cell death” value (HEK293 cells) was “reduced the level of NMDA receptor induced cell death”.

“SEQ ID NO:55: corresponding region of mouse TRPM5, about 60% sequence identity with SEQ ID NO:5, negative control (NSEDRAFALLVRRNHSWSRTTCLHLATEADAKAFFAHDGVQAFLTKIWWGDMATGTP; listed as Mus musculus) [reference compound]” was tested, and the “protection against NMDA induced cell death (neuroprotective effect)” value [1] was “not capable of reducing NMDA receptor-mediated cell toxicity”, the “protection against NMDA induced cell death (neuroprotective effect)” value ([1]; listed as SEQ ID NO: 55) was “did not reduce NMDA receptor-mediated cell toxicity” and the “NMDA receptor induced mitochondrial membrane potential breakdown” value [2] was “not capable of preventing NMDA receptor induced mitochondrial membrane potential breakdown”.

In the case of CNCC1CCN(C(=O)c2ccc(-n3cnc4ccccc43)cc2)CC1 [P8], the “NMDA receptor induced cell death” value (HEK293 cells) is reported as “reduced the level of NMDA receptor induced cell death”.

For MK-801 maleate [reference compound], the NMDA-induced calcium transients (NMDA receptor) was “completely blocked”.

B1: SEQ ID NO:56: fusion protein of SEQ ID NO:5 and protein transduction domain TAT (SEQ ID NO:42) (protein)
chain: RKKRRQRRRSQPNSEERAARLLLRRCPLWGEATCLQLAMQADARAFFAQDGVQSLLTQKWWGEMDSTTP
modifications: Fusion protein composed of TAT peptide and SEQ ID NO: 5
For B1, the “protection against NMDA excitotoxicity (cell death)” value [3] was “protected neurons from NMDA excitotoxicity”.
